Assay results as given in US20240228487A1, “FUSED HETEROCYCLIC COMPOUND AND APPLICATION THEREOF, PHARMACEUTICAL COMPOSITIONS CONTAINING SAME AND APPLICATION THEREOF” (ZHEJIANG UNIVERSITY, priority 2021, published 2024).

Key:
[1] = system: dopaminergic neurons differentiated from iPSC derived from disseminated PD patients; experiment: cell viability (cell titer glo) of iPSC differentiated dopaminergic neurons; format: cell-based, human; conditions: II-23 0.6 μM, ACA 0.5 μM, from day 15 of culture; CTG kit
Procedure: Using normal and disseminated PD patient-derived induced pluripotent stem cells (iPSC), performing drug interventions using the TRPM2 inhibitors ACA and II-23 after they were induced and differentiated into mature dopaminergic neurons, the drug treating method is as follows: • a. Calculating the materials for the experiment, and starting preparing when the dopaminergic neurons are differentiated to the 8th day. The petri dishes should be treated with 33 μg/mL PDL overnight and washed with sterilized water. After drying, 2 μg/mL of laminin was added and incubated overnight. Both PDL and laminin can be recycled for reuse. • b. Digesting and collecting the differentiated cells with Accutase, and counting with a cell counting plate, and then diluting to 500,000/mL with maturation medium (Y-27632 should be added). Fluorescence confocal imaging was performed using a confocal dish inoculated with 2 mL/dish, and cell viability assays were performed using a 96-well plate inoculated with 100 μL/well. Taking this time point as the 10th day, changing to Y-27632-free medium on the 11th day, and changing the medium every two days. • c. When the cells were cultured to the 15th day, treating the drugs to a final concentration with the medium, the working concentration of ACA is 0.5 μM, and the working concentration of II-23 is 0.6 μM, and the drug-containing medium was changed every four days. […]

[2] = system: dopaminergic neurons differentiated from iPSC derived from disseminated PD patients; experiment: mitochondrial fusion morphology (Mitotracker, Girk2 labeling) of iPSC differentiated dopaminergic neurons; format: cell-based, human; conditions: II-23 0.6 μM, ACA 0.5 μM; Mitotracker staining, Girk2-positive neurons
Procedure: Using normal and disseminated PD patient-derived induced pluripotent stem cells (iPSC), performing drug interventions using the TRPM2 inhibitors ACA and II-23 after they were induced and differentiated into mature dopaminergic neurons, the drug treating method is as follows: • a. Calculating the materials for the experiment, and starting preparing when the dopaminergic neurons are differentiated to the 8th day. The petri dishes should be treated with 33 μg/mL PDL overnight and washed with sterilized water. After drying, 2 μg/mL of laminin was added and incubated overnight. Both PDL and laminin can be recycled for reuse. • b. […] Fluorescence confocal imaging was performed using a confocal dish inoculated with 2 mL/dish, and cell viability assays were performed using a 96-well plate inoculated with 100 μL/well. […]
Positive dopamine neurons were labeled with a dopaminergic neuron marker molecule Girk2 antibody susceptible for SNc, and cellular mitochondria were labeled with the mitochondrial dye mitotracker as in FIG. 15. […] Finally, performing the fluorescence imaging: removing the secondary antibody, and washing three times with 1×PBS, adding 50% Glycerol for fluorescence protection, and then imaging with a Zeiss LSM880 laser confocal microscope, as shown in FIG. 15.

[3] = system: C57BL/6 mice, transient middle cerebral artery occlusion (tMCAO); experiment: mouse tMCAO cerebral stroke model (Embodiment 69); format: in vivo; conditions: 3 mg/kg tail vein injection 3 h after reperfusion; for area of cerebral infarction caused by tMCAO: TTC staining 24 h after ischemia-reperfusion; for neuromotor dysfunction scores caused by tMCAO: scored 24 h after ischemia-reperfusion
Description: After isoflurane inhalation gas anesthesia of 22-25 g male C57BL/6 mice, the fiber-optic probes of a laser Doppler flowmeter were fixed to the skull of the mice with glue for monitoring the cerebral blood flow of the middle cerebral artery (MCA) supplying cortex. The mice were fixed in the supine position, and the middle of the neck was dehaired and routinely sterilized with 75% alcohol. An approximately 1.5 cm incision was made in the middle of the neck, and the skin of the neck was incised, and the muscle and fascia were separated along the inner edge of the sternocleidomastoideole; the right carotid artery sheath was bluntly separated to expose the right common carotid artery (CCA), external carotid artery (ECA), and internal carotid artery (ICA); after the surgical area was exposed satisfactorily, the CCA and ICA were temporarily clipped with arterial clips, and a small incision was made at the proximal end of the ECA with microsurgical scissors, and a nylon monofilament suture was inserted from the small incision along the ECA, and gently pushed into the intracranial area in the direction of the ICA for about 11.5±0.5 mm, blocking the beginning of the middle cerebral artery. Only the animals whose blood flow values decreased to 20% of the basic value were selected according to the blood flow data monitored by the flowmeter. After 90 minutes of ischemia, the monofilament sutures were gently withdrawn out, the arterial stumps were tied tightly, the surgical wounds were inspected, the bleeding was thoroughly stopped, a small amount of penicillin powder was sprinkled locally to prevent infection, and the subcutaneous tissues and the skin were sutured layer by layer, thus completing the ischemia reperfusion injury model. A heating plate was used to maintain the body temperature of the animals during surgery. After completion of the surgery, the sutured mice were placed in a heat preservation and humidification box until the mice recovered activities. Animals in the sham-operated group were subjected to the same surgical procedure but without middle artery occlusion.
Clean-grade male C57BL/6 mice were randomly divided into five groups, namely, the sham-operated group, the group of the positive control drug Edaravone(3 mg/kg), and the 3 mg/kg dose group of compounds II-1, II-23 and III-1.
The mice were subjected to tail vein injections of Edaravone, II-1, II-23, and III-1 respectively 3 h after modeling and reperfusion; the sham-operated group was injected with an equal volume of saline, and II-1, II-23, III-1, and Edaravone were dissolved in 0.9% saline solution. Neurological function scores and TTC staining of mice were performed 24 h after ischemia-reperfusion, and the results are shown in FIGS. 6, 7 and 8.
The mice were decapitated 24 h after ischemia-reperfusion, the coronal planes of the brains were cut into brain slices of about 2 mm thickness uniformly. The brain slices were placed in 0.25% 2,3,5-triphenyltetrazolium chloride (TTC) solution, incubated at 37° C. Celsius for 30 minutes away from light, stained, and fixed in 4% paraformaldehyde neutral buffer (pH 7.4) overnight. The processed brain slices were photographed using a macro camera, and Image J image analysis software was used to calculate and count the cerebral infarct volume, and the measured results are shown in FIG. 7. The formula for calculating the percentage of infarct volume was (sum of the left uninfarcted area −sum of the right uninfarcted area)/sum of the left uninfarcted area×100%.
According to the five-level, four-point standard of score, the mortality and neuromotor dysfunction scores of each group of mice were performed, and the results are shown in FIG. 8. […]

[4] = system: C57BL/6 mice, transient middle cerebral artery occlusion (tMCAO); experiment: mouse tMCAO ischemia/reperfusion injury model (Embodiment 68); format: in vivo; conditions: 3 mg/kg tail vein injection 3 h after reperfusion
Procedure: After isoflurane inhalation gas anesthesia of 22-25 g male C57BL/6 mice, the fiber-optic probes of the laser Doppler flowmeter were fixed to the animal's skull with glue for monitoring the cerebral blood flow of the middle cerebral artery (MCA) supplying cortex. […] Only animals whose blood flow values decreased to 20% of the basic value were selected according to the blood flow data monitored by the flowmeter. […]
The mice were decapitated 24 h after ischemia-reperfusion, the coronal planes of the brains were cut into brain slices of about 2 mm thickness uniformly, the brain slices were placed in 0.25% 2,3,5-triphenyltetrazolium chloride (TTC) solution, incubated at 37° C. […] The processed brain slices were photographed using a macro camera, and Image J image analysis software was used to calculate and count the cerebral infarct volume, and the measured results are shown in FIG. 4. […]

[5] = target: T1, human TRPM2 channels (Homo sapiens, UniProt O94759); experiment: whole cell patch clamp, inhibition of TRPM2 channel current; format: cell-based; conditions: HEK293 cells stably expressing human TRPM2, 500 μM ADPR
T1 construct: expressed in transfected cells
T1 sequence (O94759 whole entry): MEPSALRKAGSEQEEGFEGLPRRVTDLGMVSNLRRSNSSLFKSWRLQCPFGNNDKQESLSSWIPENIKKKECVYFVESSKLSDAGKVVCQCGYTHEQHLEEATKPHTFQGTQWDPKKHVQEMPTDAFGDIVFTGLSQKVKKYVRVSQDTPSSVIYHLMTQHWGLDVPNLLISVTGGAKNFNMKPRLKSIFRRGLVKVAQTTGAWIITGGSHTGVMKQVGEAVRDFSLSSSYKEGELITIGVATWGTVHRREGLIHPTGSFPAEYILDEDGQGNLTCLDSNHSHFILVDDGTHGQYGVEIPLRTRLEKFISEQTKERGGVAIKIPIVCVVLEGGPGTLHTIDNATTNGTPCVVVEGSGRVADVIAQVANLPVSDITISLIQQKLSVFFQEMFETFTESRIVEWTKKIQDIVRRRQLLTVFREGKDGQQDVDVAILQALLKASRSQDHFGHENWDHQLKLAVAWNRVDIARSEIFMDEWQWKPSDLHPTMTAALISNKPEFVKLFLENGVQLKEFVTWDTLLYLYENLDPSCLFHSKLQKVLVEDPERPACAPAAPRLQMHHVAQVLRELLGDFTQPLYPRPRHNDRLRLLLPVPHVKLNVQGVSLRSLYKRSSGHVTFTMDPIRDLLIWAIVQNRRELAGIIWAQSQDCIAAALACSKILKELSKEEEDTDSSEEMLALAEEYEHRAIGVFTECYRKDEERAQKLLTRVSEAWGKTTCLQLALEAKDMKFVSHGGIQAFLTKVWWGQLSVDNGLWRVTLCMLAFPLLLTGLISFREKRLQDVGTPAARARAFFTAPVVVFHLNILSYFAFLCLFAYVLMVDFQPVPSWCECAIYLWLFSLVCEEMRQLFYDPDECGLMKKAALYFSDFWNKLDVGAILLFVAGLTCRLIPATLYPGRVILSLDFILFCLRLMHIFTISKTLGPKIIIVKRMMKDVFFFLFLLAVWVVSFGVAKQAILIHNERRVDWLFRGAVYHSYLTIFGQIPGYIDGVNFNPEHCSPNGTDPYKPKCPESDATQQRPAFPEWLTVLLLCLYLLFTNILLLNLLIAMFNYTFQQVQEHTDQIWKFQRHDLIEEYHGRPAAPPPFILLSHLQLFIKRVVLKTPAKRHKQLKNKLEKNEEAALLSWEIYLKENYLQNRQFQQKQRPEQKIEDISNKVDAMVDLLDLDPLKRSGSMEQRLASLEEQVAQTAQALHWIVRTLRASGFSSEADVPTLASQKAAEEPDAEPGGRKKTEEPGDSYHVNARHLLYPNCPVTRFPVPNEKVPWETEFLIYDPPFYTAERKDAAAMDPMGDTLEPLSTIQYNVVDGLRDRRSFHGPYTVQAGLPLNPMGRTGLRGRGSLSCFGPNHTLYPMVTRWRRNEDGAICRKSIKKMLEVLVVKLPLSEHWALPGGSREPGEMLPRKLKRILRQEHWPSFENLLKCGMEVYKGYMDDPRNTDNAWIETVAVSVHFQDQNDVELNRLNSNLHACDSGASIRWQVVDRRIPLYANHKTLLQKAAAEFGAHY
Procedure: The fused heterocyclic compound of the present invention has an inhibitory effect on the TRPM2 channel, and its pharmacological activity is measured using whole cell patch clamp technology, the corresponding steps are as follows: Incubating HEK293 cells stably expressing human TRPM2 channels in DMEM/F-12 medium containing 10% bovine serum, 50 units/mL of penicillin and […] of streptomycin under the condition of 5% CO2 and 37° C. The cells before testing are stored in the extracellular fluid (147 mM NaCl, 2 mM KCl, 1 mM MgCl2, 2 mM CaCl2, 10 mM HEPES, 13 mM glucose, pH 7.4). The electrode is filled with the electrode internal solution (147 mM NaCl, 0.05 mM EGTA, 1 mM MgCl2, 10 mM HEPES, 0.5 mM ADPR, pH=7.3), and the resistance is maintained at 3-5 M Ω. Administering ADPR into cells through electrodes, and detecting the ADPR concentration used to activate TRPM2 as 500 μM, when detecting a stable current, perfusing the corresponding concentration of fused heterocyclic compound II-1 into the extracellular fluid for at least 60 seconds. record the change in current magnitude using voltage ramp mode, changing the voltage from −100 mV to+100 mV within 500 ms, with a normal clamp voltage of 0 mV and a TRPM every 5 seconds; finally, replacing the extracellular fluid with a solution with pH=5.0 to block the TRPM2 current, the electrophysiological current test results obtained are shown in Table 1, and the electrophysiological current graph obtained is shown in FIG. 1. Similarly, administering corresponding concentrations of other fused heterocyclic compounds (II-2˜II-54, III-1˜III-11) into the extracellular fluid, taking electrophysiological tests using the same method, the results are shown in Table 1. The electrophysiological representative current graphs of some fused heterocyclic compounds (II-9, II-19, and II-36) inhibiting TRPM2 channel current are shown in FIG. 1.

CCCCCc1ccc(/C=C/C(=O)Nc2ccccc2C(=O)O)cc1 [ACA, reference compound]
cell viability of differentiated dopaminergic neurons derived from disseminated PD patients [1]: restored
excessive mitochondrial fusion in dopaminergic neurons derived from PD patients [2]: reversed

CCOC(=O)c1cc(C(=O)c2ccccc2)n2cccc2c1 [II-1, 5-benzoimide 7-carboxylic acid ethyl ester]
area of cerebral infarction caused by tMCAO [3]: significantly reduced
neuromotor dysfunction scores caused by tMCAO [3]: significantly reduced
volume of cerebral infarction caused by tMCAO ([4]; TTC staining 24 h after ischemia-reperfusion): significantly reduce
scores of neuromotor dysfunction caused by tMCAO ([4]; scored 24 h after ischemia-reperfusion): significantly reduce
IC50 [5]: 1 to 10 µM

COC(=O)c1cc(C(=O)c2ccccc2)n2ccnc2c1 [III-1, 5-benzimidazolo[1,2-a]pyridine-7-methyl carboxylate]
area of cerebral infarction caused by tMCAO [3]: significantly reduced
neuromotor dysfunction scores caused by tMCAO [3]: significantly reduced
IC50 [5]: 1 to 10 µM

CCNC(=O)c1cc(C(=O)c2ccccc2)n2ccnc2c1 [III-7, 5-benzoyl-N-ethylimidazolo[1,2-a]pyridine-7-formamide]
IC50 [5]: 1 to 10 µM

CCN(CC)C(=O)c1cc(C(=O)c2ccccc2)n2ccnc2c1 [III-8, 5-Benzoyl-N,N-diethylimidazole[1,2-a]pyridine-7-formamide]
IC50 [5]: 10 to 20 µM

O=C(c1ccccc1)c1cc(C(=O)N2CCCC2)cc2nccn12 [III-9]
IC50 [5]: 10 to 20 µM

O=C(c1ccccc1)c1cc(C(=O)N2CCCCC2)cc2nccn12 [III-10, (5-benzimidazole[1,2-a]pyridine-7-yl) (piperidin-1-yl) ketone]
IC50 [5]: 10 to 20 µM

CCOC(=O)c1cc(C(O)c2ccccc2)n2ccnc2c1 (stereo not drawn) [III-11, 5-(hydroxy (phenyl)methylimidazolo [1,2-a]pyridine-7-ethyl carboxylate]
IC50 [5]: 20 to 50 µM
